Experimental data: patent US6933261B2, “2,4,5-Trisubstituted phenylketoenols” (Bayer Aktiengesellschaft, priority 1995, dated 2005)

Experiments:
Type in all cases: in vivo
[1] = system: caterpillars of the diamond-back moth (Plutella maculipennis); assay: Plutella test; conditions: after 7 days, active compound concentration 0.1%, dipped cabbage leaves
Procedure: (§1) Plutella Test • Solvent: 7 parts by weight of dimethylformamide • Emulsifier: 1 part by weight of alkylaryl polyglycol ether To produce a suitable preparation of active compound, 1 part by weight of active compound is mixed with the stated amount of solvent and the stated amount of emulsifier, and the concentrate is diluted with water to the desired concentration. Cabbage leaves (Brassica oleracea) are treated by being dipped into the preparation of active compound of the desired concentration and are infested with caterpillars of the diamond-back moth (Plutella maculipennis) while the leaves are still moist. After the specified periods of time, the destruction in % is determined. 100% means that all the caterpillars have been killed; 0% means that none of the caterpillars have been killed.

[2] = system: caterpillars of the owlet moth (Spodoptera frugiperda); assay: Spodoptera test; conditions: after 7 days, active compound concentration 0.1%, dipped cabbage leaves
Procedure: as §1, with “Spodoptera” for “Plutella”, “owlet” for “diamond-back”, “(Spodoptera frugiperda)” for “(Plutella maculipennis)”

[3] = system: rice green leafhopper (Nephotettix cincticeps); assay: Nephotettix test; conditions: after 6 days, active compound concentration 0.1%, dipped rice seedlings
Procedure: as §1, with “Nephotettix” for “Plutella”, “Rice seedlings (Oryza sativa)” for “Cabbage leaves (Brassica oleracea)”, “rice green leafhopper (Nephotettix cincticeps)” for “diamond-back moth (Plutella maculipennis)”, “seedlings” for “leaves”

[4] = system: peach aphid (Myzus persicae); assay: Myzus test; conditions: after 6 days, active compound concentration 0.1%, dipped cabbage leaves
Procedure: Myzus Test • Solvent: 7 parts by weight of dimethylformamide • Emulsifier: 1 part by weight of alkylaryl polyglycol ether To produce a suitable preparation of active compound, 1 part by weight of active compound is mixed with the stated amount of solvent and the stated amount of emulsifier, and the concentrate is diluted with water to the desired concentration. Cabbage leaves (Brassica oleracea) which are heavily infested by the peach aphid (Myzus persicae) are treated by being dipped into the preparation of the active compound of the desired concentration. After the specified periods of time, the destruction in % is determined. 100% means that all the caterpillars have been killed; 0% means that none of the caterpillars have been killed.

[5] = system: All larval stages of Lucilia cuprina (OP-resistant); assay: Test with fly larvae/development-inhibiting action; conditions: active compound concentration 1000 ppm, read-out: action (larvicidal / development-inhibiting)
Procedure: Test with Fly Larvae/Development-Inhibiting Action
• Test animals: All larval stages of Lucilia cuprina (OP-resistant) [pupae and adults (without contact with the active compound)] • Solvent: 35 parts by weight of ethylene glycol monomethyl ether 35 parts by weight of nonylphenol polyglycol ether
To produce a suitable formulation, 3 parts by weight of active compound are mixed with seven parts of the abovementioned solvent/emulsifier mixture and the emulsion concentrate thus obtained is diluted with water to the particular desired concentration.
30 to 50 larvae per concentration are introduced onto horse-meat (1 cm^3), in glass tubes, onto which 500 μl of the dilution to be tested are pipetted. The glass tubes are placed in plastic beakers, the base of which is covered with beach sand, and are stored in a climatically controlled room (26° C.±1.5° C., 70% relative humidity±10%). The action is checked after 24 hours and 48 hours (larvicidal action). After emergence of the larvae (about 72 hours), the glass tubes are removed and perforated plastic lids are placed on the beakers. After 1½ times the development period (hatching of the control flies), the flies which have hatched and the pupae/pupae cases are counted. […]

[6] = system: Boophilus microplus resistant/SP-resistant Parkhurst strain, adult satiated females; assay: Test with Boophilus microplus resistant/SP-resistant Parkhurst strain; conditions: 20 μg per animal, injected into the abdomen
Procedure: Test with Boophilus microplus Resistant/SP-resistant Parkhurst Strain
• Test animals: Adult satiated females • Solvent: Dimethyl sulphoxide
20 mg of active compound are dissolved in 1 ml of dimethyl sulphoxide, and lower concentrations are prepared by dilution in the same solvent.
The test is carried out as a 5-fold determination. 1 μl of the solutions is injected into the abdomen and the animals are transferred to dishes and kept in a climatically controlled room. The action is determined via the inhibition of oviposition. 100% means that no tick has laid.

[7] = system: Alopecurus myosuroids; assay: Pre-emergence test; conditions: 500 g/ha, rated after three weeks vs untreated control
Procedure: (§2) • Solvent: 5 parts by weight of acetone • Emulsifier: 1 part by weight of alkylaryl polyglycol ether
(§3) To produce a suitable preparation of active compound, 1 part by weight of active compound is mixed with the stated amount of solvent, the stated amount of emulsifier is added and the concentrate is diluted with water to the desired concentration.
(§4) Seeds of the test plants are sown in normal soil and, after 24 hours, watered with the preparation of the active compound. It is expedient to keep constant the amount of water per unit area. The concentration of the active compound in the preparation is of no importance, only the amount of active compound applied per unit area being decisive.
(§5) After three weeks, the degree of damage to the plants is rated in % damage in comparison to the development of the untreated control.
(§6) The figures denote: • 0%=no action (like untreated control) • 100%=total destruction

[8] = system: Avena fatua; assay: Pre-emergence test; conditions: 500 g/ha, rated after three weeks vs untreated control
Procedure: as §2, §3, §4, §5, §6

[9] = system: Setaria viridis; assay: Pre-emergence test; conditions: 500 g/ha, rated after three weeks vs untreated control
Procedure: as §2, §3, §4, §5, §6

[10] = system: Beta vulgaris; assay: Pre-emergence test (crop tolerance); conditions: 500 g/ha
Procedure: as §2, §3, §4, §5, §6

[11] = system: mustard beetle larvae (Phaedon cochleariae); assay: Phaedon larvae test; conditions: after 7 days, active concentration 0.1%, dipped cabbage leaves
Procedure: Phaedon Larvae Test • Solvent: 7 parts by weight of dimethylformamide • Emulsifier: 1 part by weight of alkylaryl polyglycol ether To produce a suitable preparation of active compound, 1 part by weight of active compound is mixed with the stated amount of solvent and the stated amount of emulsifier, and the concentrate is diluted with water to the desired concentration. Cabbage leaves (Brassica oleracea) are treated by being dipped into the preparation of the active compound of the desired concentration and are infested with mustard beetle larvae (Phaedon cochleariae), as long as the leaves are still moist. After the specified periods of time, the destruction in % is determined. 100% means that all the beetle larvae have been killed; 0% means that none of the beetle larvae have been killed.

Compound | destruction [1] | destruction [2] | destruction [3] | destruction [4] | further results
Cc1cc(C)c(C2=C(OC(=O)C(C)C)C3(CCC(C)CC3)NC2=O)cc1C (single isomer, unassigned) [Example I-1-b-2] | 100% | 100% | 100% | 100% | 
COC1CCC2(CC1)NC(=O)C(c1cc(C)c(C)cc1C)=C2OC(=O)C(C)C (single isomer, unassigned) [Example I-1-b-3] |  |  | 100% | 100% | 
COC1CCC2(CC1)NC(=O)C(c1cc(C)c(C)cc1C)=C2OC(=O)OCC(C)C (single isomer, unassigned) [Example I-1-c-2] |  |  | 100% | 100% | 
COC1CCC2(CC1)NC(=O)C(c1cc(C)c(C)cc1C)=C2OC(=O)OCC(C)C (single isomer, unassigned) [Example I-1-c-3] |  |  | 100% |  | 
Cc1cc(C)c(C2=C(O)C3(CCC(C)CC3)NC2=O)cc1C (centres unmarked) [Example I-1-a-1] | 100% | 100% | 100% |  | 
CC(=O)OC1=C(c2cc(C)c(C)cc2C)C(=O)NC12CCC(C)CC2 (centres unmarked) [Example I-1-b-1] |  |  | 100% |  | 
CCOC(=O)OC1=C(c2cc(C)c(C)cc2C)C(=O)NC12CCC(C)CC2 (centres unmarked) [Example I-1-c-1] | 100% |  | 100% |  | 
Cc1cc(C)c(C2=C(O)C3(CCCCC3)OC2=O)cc1C [Example I-2-a-1] |  |  |  | 100% | 
Cc1cc(C)c(C2=C(O)C3(CCC(C)CC3)OC2=O)cc1C (centres unmarked) [Example I-2-a-2] |  |  | 100% |  | 
COC1CCC2(CC1)OC(=O)C(c1cc(C)c(C)cc1C)=C2O (centres unmarked) [Example I-2-a-3] |  |  | 100% |  | 
COC1CCC2(CC1)OC(=O)C(c1cc(C)c(C)cc1C)=C2OC(=O)C(C)C (centres unmarked) [Example I-2-b-4] |  |  | 100% | 100% | 
COC1CCC2(CC1)OC(=O)C(c1cc(C)c(C)cc1C)=C2OC(=O)C(C)(C)C (centres unmarked) [Example I-2-b-5] |  |  | 100% |  | 
Cc1cc(C)c(-c2c(O)c3c(oc2=O)C(C)(C)OC3(C)C)cc1C [Example I-4-a-1] | 100% | 100% |  |  | inhibition at 1000 ppm [5]: 100%; action (inhibition of oviposition) [6]: 100%
Cc1cc(C)c(-c2c(O)c(C)c(-c3ccc(F)cc3)oc2=O)cc1C [Example I-4-a-3] | 100% | 100% | 100% |  | damage [7]: 90%; damage [8]: 96%; damage [9]: 95%; tolerance by crop plant [10]: good tolerance
Cc1cc(C)c(-c2c(O)c(C)c(-c3ccccn3)oc2=O)cc1C [Example I-4-a-4] | 100% | 100% | 100% | 100% | destruction [11]: 100%
CC(=O)Oc1c2c(oc(=O)c1-c1cc(C)c(C)cc1C)C(C)(C)OC2(C)C [Example I-4-b-1] | 100% | 100% |  |  | destruction [11]: 100%; action (inhibition of oviposition) [6]: 100%
